Reference: US20090221559A1 (priority 2005, published 2009)
Read-outs that look alike come from different tables or passages of the source.

Experiments:
[1] = target: T1, HCV NS5B polymerase (His-tagged, C-terminal 21 amino acid deleted NS5B, HC-J4) (Hepatitis C virus genotype 1b, UniProt O92972); assay: NS5b polymerase assay (biochemical RdRp assay, 3H-GTP incorporation, SPA beads); design: species or system HCV genotype 1b
T1 construct: The cDNA encoding NS5B amino acid 1-570 (HC-J4, genotype 1b); His tag (His6, from pET-21b) (C); made in house; host or cells: E. coli BL21 (DE3)
T1 sequence (O92972 2417-3000, looked up, stated change not applied): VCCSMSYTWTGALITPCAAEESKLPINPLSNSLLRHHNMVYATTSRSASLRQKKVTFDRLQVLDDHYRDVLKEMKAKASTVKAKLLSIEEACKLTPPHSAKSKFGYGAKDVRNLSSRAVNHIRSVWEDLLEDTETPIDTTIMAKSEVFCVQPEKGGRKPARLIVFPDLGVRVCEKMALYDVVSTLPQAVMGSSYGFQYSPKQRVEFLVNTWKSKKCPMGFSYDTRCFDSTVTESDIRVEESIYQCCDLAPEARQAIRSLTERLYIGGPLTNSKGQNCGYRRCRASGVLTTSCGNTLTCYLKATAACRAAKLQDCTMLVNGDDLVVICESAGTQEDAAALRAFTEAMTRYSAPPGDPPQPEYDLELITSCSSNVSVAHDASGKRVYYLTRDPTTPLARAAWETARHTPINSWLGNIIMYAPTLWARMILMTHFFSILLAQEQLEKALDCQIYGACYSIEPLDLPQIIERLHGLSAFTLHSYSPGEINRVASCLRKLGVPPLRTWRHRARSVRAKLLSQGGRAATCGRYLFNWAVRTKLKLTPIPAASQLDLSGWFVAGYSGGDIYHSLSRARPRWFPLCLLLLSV
Protocol: (§1) The compounds of formula (I) were tested for anti-HCV activity in an assay determining their activity against NS5b polymerase and in an HCV replicon assay
The cDNA encoding NS5B amino acid 1-570 (HC-J4, genotype 1b, pCV-J4L6S, genebank accession number AF054247) was subcloned into the Nhe I and Xho I restriction sites of pET-21b. Expression of the subsequent His-tagged C-terminal 21 amino acid deleted NS5B was performed as follows:
Following transformation in BL21 (DE3) competent cells, bacterial cells were grown in 22 liter LB/Amp media until to reach OD600=0.4-0.6. Protein expression was induced by addition of IPTG 0.4 mM, supplemented with 10 μM MgCl2, and incubated for 14-16 hrs at 20° C. Cells were harvested, resuspended in lysis buffer (20 mM Tris-HCl pH=7.5, 0.3 M NaCl, 10% glycerol, 0.1% NP40, 4 mM MgCl2, 14 mM beta-mercaptoethanol, with tablet of EDTA-free protease cocktail inhibitors) and lysed by sonification. The cell lysate was cleared by high-speed centrifugation (20K×g for 30 min), captured on Ni-NTA beads for 70 min at 4° C., and eluted with 25 mM Hepes pH 7.5, 0.5 M NaCl, 10% glycerol, 14 mM BME, 500 mM imidazole. The eluent was dialysed against 25 mM Hepes pH 7.5, 10% glycerol, 50 mM NaCl, 14 mM BME, after which the protein was further purified by heparin chromatography using the same buffer with 1 M NaCl for elution. Fractions containing pure protein were collected, dialyzed against storage buffer 25 mM Hepes pH=7.5, 300 mM NaCl, 10% glycerol, 14 mM BME), and flash-freezed in liquid nitrogen.
Measurement of HCV NS5B polymerization activity was performed by evaluating the amount of radiolabeled GTP incorporated by the enzyme in a newly synthesized RNA using heteropolymeric RNA template/primer. The highthroughput RdRp assay was carried out in 384-well plates using 200 nM enzyme, 0.1 μCi of ^3H GTP, 5 mM MgCl2, 600 nM GTP, 30 nM PolyC, 300 nM 5′-biotinylated oligo(rG13)/poly(rC) in 20 mM Tris pH 7.5, 21 mM KCl, 2.5 mM DTT, 16.7 mM NaCl and 0.17 mM EDTA. Test compounds were dissolved in dimethylsulfoxide. The test compounds were added to the preformed polymerase-template complex, and incubated at room temperature (RT) for 15 min before the addition of NTPs. The 30-μl reaction was terminated after 2 h at 25° C. upon addition of 30-μl PVT-SPA beads (Amersham Biosciences RPNQ0009, 5 mg/ml in 0.5 M EDTA).

[2] = system: HCV replicon RNA replication in Huh-7 luc/neo (Huh-Luc) cells; assay: HCV replicon assay (stable replicon cell reporter assay, luciferase read-out); type: cell-based, HCV type 1b
Protocol: as §1
The compounds of the present invention were examined for activity in the inhibition of HCV RNA replication in a cellular assay. […] The cellular assay was based on a bicistronic expression construct, as described by Lohmann et al. (1999) Science vol. 285 pp. 110-113 with modifications described by Krieger et al. (2001) Journal of Virology 75: 4614-4624, in a multi-target screening strategy. In essence, the method was as follows.
The assay utilized the stably transfected cell line Huh-7 luc/neo (hereafter referred to as Huh-Luc). This cell line harbored an RNA encoding a bicistronic expression construct comprising the wild type NS3-NS5B regions of HCV type 1b translated from an Internal Ribosome Entry Site (IRES) from encephalomyocarditis virus (EMCV), preceded by a reporter portion (FfL-luciferase), and a selectable marker portion (neo^R, neomycine phosphotransferase). The construct was bordered by 5′ and 3′ NTRs (non-translated regions) from HCV type 1b. Continued culture of the replicon cells in the presence of G418 (neo^R) was dependent on the replication of the HCV RNA. The stably transfected replicon cells that expressed HCV RNA, which replicated autonomously and to high levels, encoding inter alia luciferase, were used for screening the antiviral compounds.
The replicon cells were plated in 384 well plates in the presence of the test and control compounds which were added in various concentrations. Following an incubation of three days, HCV replication was measured by assaying luciferase activity (using standard luciferase assay substrates and reagents and a Perkin Elmer ViewLux™ ultraHTS microplate imager). […] The inhibitory activity of the compound on luciferase activity was monitored on the Huh-Luc cells, enabling a dose-response curve for each test compound.

[3] = 200 nM enzyme, 3H-GTP incorporation, 2 h at 25° C., read-out: NS5B Polymerase Assay IC50
[4] = Huh-Luc cells, three days incubation, luciferase activity, read-out: Replicon Assay EC50
[5] = NS5B Polymerase Assay IC50, 200 nM enzyme, 3H-GTP incorporation, 2 h at 25° C.
[6] = Hepatitis C virus, Huh-7, 72 h, read-out: Replicon Assay EC50, Huh-Luc cells, three days incubation, luciferase activity
[7] = NS5B Polymerase Assay IC50 (μM)
[8] = Hepatitis C virus, Huh-7, 72 h, read-out: Replicon Assay EC50 (μM), Huh-Luc cells, incubation of three days, luciferase activity
[9] = read-out: Replicon Assay EC50, Huh-Luc cells, three days incubation, luciferase activity
[10] = read-out: NS5B Polymerase Assay IC50, 200 nM enzyme, 3H-GTP incorporation, 2 h at 25° C.

SMILES: CCCCCC(=O)N1c2ccccc2NC2=C(C(=O)CC(c3ccc(OC)c(OC)c3)C2)C1c1cccc(Cl)c1 (mixture of isomers) [compound 205]
- IC50 [1, 3]: > 33.3 µM
- EC50 [2, 4]: 9.96 µM

SMILES: COc1ccc(C2CC(=O)C3=C(C2)Nc2ccccc2N(C(=O)c2ccccc2)C3c2ccc(C)cc2)cc1 (mixture of isomers) [compound 206]
- IC50 [1, 3]: > 33.3 µM
- EC50 [2, 4]: 10.9 µM

SMILES: O=C1CC(c2ccc(Cl)cc2)CC2=C1C(c1cccc(Cl)c1)N(C(=O)C(F)(F)F)c1ccccc1N2 (mixture of isomers) [compound 208]
- IC50 [1, 3]: > 33.3 µM
- EC50 [2, 4]: 11.1 µM

SMILES: Cc1ccc(C2CC(=O)C3=C(C2)Nc2ccccc2N(C(=O)c2ccccc2)C3c2ccccc2)cc1 (mixture of isomers) [compound 209]
- IC50 [1, 3]: > 33.3 µM
- EC50 [2, 4]: 11.8 µM

SMILES: COc1ccc(C2CC(=O)C3=C(C2)Nc2ccccc2N(C(=O)C(F)(F)F)C3c2ccc(Cl)cc2)cc1 (mixture of isomers) [compound 210]
- IC50 [1, 3]: > 33.3 µM
- EC50 [2, 4]: 12.1 µM

SMILES: Cc1ccc(C2C3=C(CC(c4cccc([N+](=O)[O-])c4)CC3=O)Nc3ccccc3N2C(=O)c2ccccc2)cc1 (mixture of isomers) [compound 212]
- IC50 [1, 3]: > 42.7 µM
- EC50 [2, 4]: 23.9 µM

SMILES: CCCCCC(=O)N1c2ccccc2NC2=C(C(=O)CC(c3ccc(Cl)cc3)C2)C1c1ccc(OC)cc1 (mixture of isomers) [compound 215]
- IC50 [1, 3]: > 33.3 µM
- EC50 [2, 4]: 14.1 µM

SMILES: CCOc1ccccc1C1C2=C(CC(c3ccc(OC)cc3)CC2=O)Nc2ccccc2N1C(=O)C(F)(F)F (mixture of isomers) [compound 216]
- IC50 [1, 3]: > 42.7 µM
- EC50 [2, 4]: 25.3 µM

SMILES: CCCCOc1ccc(C2CC(=O)C3=C(C2)Nc2ccccc2N(C(=O)CC)C3c2ccccc2)cc1 (mixture of isomers) [compound 217]
- IC50 [1, 3]: > 42.7 µM
- EC50 [2, 4]: 20.3 µM

SMILES: COc1ccc(C2CC(=O)C3=C(C2)Nc2ccccc2N(C(=O)c2ccccc2)C3c2ccc(Cl)cc2)cc1OC (mixture of isomers) [compound 218]
- IC50 [1, 3]: > 33.3 µM
- EC50 [2, 4]: 14.8 µM

SMILES: CC(=O)N1c2ccccc2NC2=C(C(=O)CC(c3ccccc3OCc3ccccc3)C2)C1C(Br)=Cc1ccccc1 (mixture of isomers) [compound 299]
- IC50 [1, 5]: > 133 µM
- EC50 [2, 6]: 2.36 µM

SMILES: O=C1CC(c2ccccc2OCc2ccccc2)CC2=C1C(C(Br)=Cc1ccccc1)Nc1ccccc1N2 (mixture of isomers) [compound 497]
- IC50 [1, 7]: > 133 µM
- EC50 [2, 8]: 3.79 µM

SMILES: O=C1CC(c2ccccc2OCc2ccccc2)CC2=C1C(C(Br)=Cc1ccccc1)Nc1ccccc1N2 (mixture of isomers) [compound 498]
- IC50 ([1]; read-out: NS5B Polymerase Assay IC50): > 133 µM
- EC50 ([2]; Huh-Luc cells, incubation of three days, luciferase activity, read-out: Replicon Assay EC50): 2.92 µM

SMILES: CC1(C)CC(=O)C2=C(C1)Nc1ccccc1N(C(=O)C(F)(F)F)C2/C=C/c1ccccc1 (racemic) [compound 244]
- IC50 [1, 5]: > 33.3 µM
- EC50 [2, 6]: 15.9 µM

SMILES: CC1(C)CC(=O)C2=C(C1)Nc1ccccc1NC2/C(Br)=C/c1ccccc1 (racemic) [compound 500, 11-(1-Bromo-2-phenylvinyl)-3,3-dimethyl-2,3,4,5,10,11-hexahydro-dibenzo[b,e][1,4]diazepin-1-one]
- IC50 [1, 7]: > 133 µM
- EC50 [2, 8]: 26.5 µM

SMILES: CC1(C)CC(=O)C2=C(C1)Nc1ccccc1NC2/C(Cl)=C/c1ccccc1 (racemic) [compound 506, 11-(1-Chloro-2-phenylvinyl)-3,3-dimethyl-2,3,4,5,10,11-hexahydro-dibenzo[b,e][1,4]diazepin-1-one]
- IC50 [1, 7]: > 42.7 µM
- EC50 [2, 8]: 56.7 µM

SMILES: CC(=O)N1c2ccccc2NC2=C(C(=O)CC(C)(C)C2)C1c1ccc(Cl)cc1Cl (single isomer, unassigned) [compound 35, 10-Acetyl-11-(2,4-dichlorophenyl)-2,3,4,5,10,11-hexahydro-3,3-dimethyl-1H-dibenzo[b,e][1,4]diazepin-1-one]
- IC50 [1, 5]: 1.28 µM
- EC50 [2, 9]: 20.5 µM

SMILES: CC(=O)N1c2ccccc2NC2=C(C(=O)CC(C)(C)C2)C1c1ccc(Cl)cc1Cl (single isomer, unassigned) [compound 36, 10-Acetyl-11-(2,4-dichlorophenyl)-2,3,4,5,10,11-hexahydro-3,3-dimethyl-1H-dibenzo[b,e][1,4]diazepin-1-one]
- IC50 [1, 5]: > 41.3 µM
- EC50 [2, 6]: 17 µM

SMILES: CC(=O)N1c2ccccc2NC2=C(C(=O)CC(c3ccccc3OCc3ccccc3)C2)C1c1ccc(Cl)cc1Cl (single isomer, unassigned) [compound 186, 10-Acetyl-3-(2-benzyloxyphenyl)-11-(2,4-dichlorophenyl)-2,3,4,5,10,11-hexahydro-dibenzo[b,e][1,4]diazepin-1-one]
- IC50 [1, 5]: 40.9 µM
- EC50 [2, 6]: 2.03 µM

SMILES: CC(=O)N1c2ccccc2NC2=C(C(=O)CC(c3ccccc3OCc3ccccc3)C2)C1c1cccc(OCc2ccccc2)c1 (single isomer, unassigned) [compound 189]
- IC50 [1, 5]: > 42.7 µM
- EC50 [2, 9]: 3.99 µM

SMILES: CC(=O)N1c2ccccc2NC2=C(C(=O)CC(c3ccccc3OCc3ccccc3)C2)C1c1cccc(OCc2ccccc2)c1 (single isomer, unassigned) [compound 190]
- IC50 [1, 10]: > 42.7 µM
- EC50 [2, 9]: 1.09 µM

SMILES: CC(=O)N1c2ccccc2NC2=C(C(=O)CC(c3ccccc3OCc3ccccc3)C2)C1c1cccc(OC(=O)c2ccc(Cl)cc2)c1 (single isomer, unassigned) [compound 191, 10-Acetyl-3-(2-benzyloxyphenyl)-11-[3-(4-chlorobenzoyloxy)phenyl]-2,3,4,5,10,11-hexahydro-dibenzo[b,e][1,4]diazepin-1-one]
- IC50 [1, 5]: > 42.7 µM
- EC50 [2, 6]: 2.88 µM

SMILES: CC(=O)N1c2ccccc2NC2=C(C(=O)CC(c3ccccc3OCc3ccccc3)C2)C1c1cccc(OC(=O)c2ccc(Cl)cc2)c1 (single isomer, unassigned) [compound 192, 10-Acetyl-3-(2-benzyloxyphenyl)-11-[3-(4-chlorobenzoyloxy)phenyl]-2,3,4,5,10,11-hexahydro-dibenzo[b,e][1,4]diazepin-1-one]
- IC50 [1, 10]: > 42.7 µM
- EC50 [2, 9]: 4.87 µM

SMILES: CC(=O)N1c2ccccc2NC2=C(C(=O)CC(C)(C)C2)[C@H]1c1ccc(OCc2ccccc2)cc1 (single isomer, unassigned) [compound 301]
- IC50 [1, 5]: 1.52 µM
- EC50 [2, 6]: 15.3 µM

SMILES: CC(=O)N1c2ccccc2NC2=C(C(=O)CC(C)(C)C2)[C@@H]1c1ccc(OCc2ccccc2)cc1 (single isomer, unassigned) [compound 302]
- IC50 [1, 5]: 92.5 µM
- EC50 [2, 6]: 1.87 µM
